Test results as given in ChEMBL document CHEMBL5257151, “Design, synthesis, and pharmacological evaluation of N-(3-carbamoyl-1H-pyrazol-4-yl)-1,3-oxazole-4-carboxamide derivatives as interleukin-1 receptor-associated kinase 4 inhibitors with reduced potential for cytochrome P450 1A2 induction” (Bioorg Med Chem, 2023).
Blank lines part the entries; values can stand above or below the compound they belong to.

Experiments:
CYP1A2 [1] = experiment: Induction of CYP1A2 mRNA expression in human HepaRG cells assessed as fold change at 30 uM incubated for 48 hrs; type: ADME, cell-based; details: read-out: FC
[2] = Inhibition of IL-1beta stimulated IL-6 production in human A549 cells pre-incubated for 1 hr followed by overnight stimulation by ELISA analysis; type: functional, cell-based
[3] = biological target: T1, Interleukin-1 receptor-associated kinase 4 (Homo sapiens, UniProt Q9NWZ3); experiment: Inhibition of human IRAK4 using biotinylated FGLARFSRFAGSSPSQSSMVARTQTVRGT peptide as substrate incubated for 1 hr in presence of ATP by ELISA assay
T1 sequence (Q9NWZ3 whole entry): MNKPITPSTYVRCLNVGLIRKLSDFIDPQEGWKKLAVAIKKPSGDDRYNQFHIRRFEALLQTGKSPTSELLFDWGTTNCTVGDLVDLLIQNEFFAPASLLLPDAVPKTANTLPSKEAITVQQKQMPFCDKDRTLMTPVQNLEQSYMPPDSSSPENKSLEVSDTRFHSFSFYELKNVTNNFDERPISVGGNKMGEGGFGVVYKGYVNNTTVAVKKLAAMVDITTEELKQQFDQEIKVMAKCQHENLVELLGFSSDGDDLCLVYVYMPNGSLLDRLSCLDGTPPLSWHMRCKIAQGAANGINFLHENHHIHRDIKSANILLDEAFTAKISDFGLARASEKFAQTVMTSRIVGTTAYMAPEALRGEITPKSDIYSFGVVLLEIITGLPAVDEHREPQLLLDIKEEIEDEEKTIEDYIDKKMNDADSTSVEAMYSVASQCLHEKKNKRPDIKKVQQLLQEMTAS

CYP1A2 [4] = experiment: Induction of CYP1A2 mRNA expression in human HepaRG cells assessed as fold change at 15 uM incubated for 48 hrs; type: ADME, cell-based; details: read-out: FC
CYP1A2 [5] = biological target: T2, CYP1A2 (Homo sapiens, UniProt P05177); experiment: Reversible inhibition of CYP1A2 in human liver microsomes assessed as residual activity at 5 uM using phenacetin as substrate preincubated for 30 mins followed by substrate addition measured after 20 mins by LC-MS/MS analysis relative to control; type: ADME, Microsome; details: probe phenacetin, time 50 min, read-out: Activity
T2 sequence (P05177 whole entry): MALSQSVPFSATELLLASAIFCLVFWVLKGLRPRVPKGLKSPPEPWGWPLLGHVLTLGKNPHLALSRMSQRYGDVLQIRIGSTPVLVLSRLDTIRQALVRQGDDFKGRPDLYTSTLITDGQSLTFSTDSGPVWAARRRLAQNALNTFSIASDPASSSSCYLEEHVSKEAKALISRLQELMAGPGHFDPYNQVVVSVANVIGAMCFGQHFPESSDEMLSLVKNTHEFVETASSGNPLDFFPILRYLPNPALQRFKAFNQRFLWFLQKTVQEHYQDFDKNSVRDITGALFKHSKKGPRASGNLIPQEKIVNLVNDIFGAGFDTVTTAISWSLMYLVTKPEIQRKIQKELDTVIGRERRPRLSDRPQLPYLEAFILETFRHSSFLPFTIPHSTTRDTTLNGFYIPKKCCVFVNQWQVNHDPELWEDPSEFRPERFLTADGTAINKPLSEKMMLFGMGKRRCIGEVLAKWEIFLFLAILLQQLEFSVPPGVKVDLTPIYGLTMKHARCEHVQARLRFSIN

CYP2C8 = biological target: T3, CYP2C8 (Homo sapiens, UniProt P10632); experiment: Reversible inhibition of CYP2C8 in human liver microsomes assessed as residual activity at 5 uM using amodiaquine as substrate preincubated for 30 mins followed by substrate addition measured after 20 mins by LC-MS/MS analysis relative to control; type: ADME, Microsome; details: probe amodiaquine, time 50 min, read-out: Activity
T3 sequence (P10632 whole entry): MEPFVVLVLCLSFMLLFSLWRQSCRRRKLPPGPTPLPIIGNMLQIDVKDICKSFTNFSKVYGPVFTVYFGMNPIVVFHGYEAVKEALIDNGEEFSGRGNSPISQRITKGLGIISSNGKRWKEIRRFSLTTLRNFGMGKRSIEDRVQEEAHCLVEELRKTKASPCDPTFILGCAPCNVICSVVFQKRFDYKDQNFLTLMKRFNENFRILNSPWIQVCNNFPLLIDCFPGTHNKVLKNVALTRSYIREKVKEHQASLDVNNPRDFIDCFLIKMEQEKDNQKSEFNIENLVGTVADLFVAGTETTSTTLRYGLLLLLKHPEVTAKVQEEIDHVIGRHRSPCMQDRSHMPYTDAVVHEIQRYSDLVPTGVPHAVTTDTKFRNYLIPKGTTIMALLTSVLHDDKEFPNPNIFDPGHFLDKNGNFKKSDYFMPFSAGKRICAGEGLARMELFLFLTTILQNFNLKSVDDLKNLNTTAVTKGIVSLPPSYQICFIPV

CYP2C9 = CYP2C9 (Homo sapiens, UniProt P11712); experiment: Reversible inhibition of CYP2C9 in human liver microsomes assessed as residual activity at 5 uM using diclofenac as substrate preincubated for 30 mins followed by substrate addition measured after 20 mins by LC-MS/MS analysis relative to control; type: ADME, Microsome; details: probe diclofenac, time 50 min, read-out: Activity
CYP3A4 [6] = biological target: T4, CYP3A4 (Homo sapiens, UniProt P08684); experiment: Reversible inhibition of CYP3A4 in human liver microsomes assessed as residual activity at 5 uM using midazolam as substrate preincubated for 30 mins followed by substrate addition measured after 20 mins by LC-MS/MS analysis relative to control; type: ADME, Microsome; details: probe midazolam, time 50 min, read-out: Activity
CYP3A4 [7] = biological target: T4, CYP3A4; experiment: Time dependent inhibition of CYP3A4 in human liver microsomes assessed as residual activity at 5 uM using midazolam as substrate preincubated for 30 mins followed by substrate addition measured after 20 mins by LC-MS/MS analysis relative to control; type: ADME, Microsome; details: probe midazolam, read-out: Activity
CYP1A2 [8] = experiment: Induction of CYP1A2 mRNA expression in human HepaRG cells assessed as fold change at 5 uM incubated for 48 hrs; type: ADME, cell-based; details: read-out: FC
CYP1A2 [9] = experiment: Induction of CYP1A2 mRNA expression in human HepaRG cells assessed as fold change at 10 uM incubated for 48 hrs; type: ADME, cell-based; details: read-out: FC
CYP1A2 [10] = experiment: Induction of CYP1A2 mRNA expression in human HepaRG cells assessed as fold change at 7.5 uM incubated for 48 hrs; type: ADME, cell-based; details: read-out: FC

Sequence of CYP2C9 (P11712 whole entry): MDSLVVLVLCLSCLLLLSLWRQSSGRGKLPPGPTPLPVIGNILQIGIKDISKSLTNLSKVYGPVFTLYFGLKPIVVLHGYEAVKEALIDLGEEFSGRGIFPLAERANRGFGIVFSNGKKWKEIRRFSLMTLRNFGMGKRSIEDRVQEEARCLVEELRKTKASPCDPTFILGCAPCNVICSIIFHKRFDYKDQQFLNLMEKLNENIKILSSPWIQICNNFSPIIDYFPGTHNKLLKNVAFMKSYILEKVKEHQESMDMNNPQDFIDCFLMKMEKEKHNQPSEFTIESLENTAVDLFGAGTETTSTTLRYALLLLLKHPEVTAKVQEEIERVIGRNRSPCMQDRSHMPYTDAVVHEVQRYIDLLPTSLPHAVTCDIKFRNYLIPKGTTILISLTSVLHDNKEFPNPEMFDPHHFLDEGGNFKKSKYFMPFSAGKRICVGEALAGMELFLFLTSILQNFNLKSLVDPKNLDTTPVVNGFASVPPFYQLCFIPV
T4 sequence (P08684 whole entry): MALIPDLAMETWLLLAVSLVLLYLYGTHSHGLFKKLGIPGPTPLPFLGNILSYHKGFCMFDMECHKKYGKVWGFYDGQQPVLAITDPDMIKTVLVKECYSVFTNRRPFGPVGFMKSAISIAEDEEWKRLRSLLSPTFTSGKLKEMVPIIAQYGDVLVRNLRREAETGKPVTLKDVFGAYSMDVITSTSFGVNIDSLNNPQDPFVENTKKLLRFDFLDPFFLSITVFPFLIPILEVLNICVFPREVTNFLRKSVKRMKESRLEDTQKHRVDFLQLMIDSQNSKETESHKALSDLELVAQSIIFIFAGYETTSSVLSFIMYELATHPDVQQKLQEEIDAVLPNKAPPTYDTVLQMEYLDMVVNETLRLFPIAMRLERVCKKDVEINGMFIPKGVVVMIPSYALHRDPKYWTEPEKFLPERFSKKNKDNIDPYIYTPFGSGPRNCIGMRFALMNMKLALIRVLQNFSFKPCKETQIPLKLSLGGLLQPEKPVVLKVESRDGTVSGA

SMILES: Cc1cc(-c2nc(C(=O)Nc3cn(C4CCS(=O)(=O)CC4)nc3C(N)=O)co2)ccn1
fold induction at 48 h, 30 µM (CYP1A2 [1]): 3.5
IC50 [2]: 1.6 µM

IC50 [3]: 0.12 µM
SMILES: Cc1cc(-c2nc(C(=O)Nc3c[nH]nc3C(N)=O)co2)ccn1

IC50 [3]: 0.082 µM
SMILES: NC(=O)c1nn(C2CCOCC2)cc1NC(=O)c1coc(-c2ccncc2F)n1

IC50 [3]: 0.014 µM
SMILES: CCc1cc(-c2nc(C(=O)Nc3cn(C4CCOCC4)nc3C(N)=O)co2)ccn1

IC50 [3]: 0.048 µM
fold induction at 48 h, 15 µM (CYP1A2 [4]): 4
SMILES: Cc1cc(-c2nc(C(=O)Nc3cn(CC(C)C)nc3C(N)=O)co2)ccn1

IC50 [3]: 0.016 µM
activity at 20 min, 5 µM (CYP1A2 [5]): 47%
activity at 20 min, 5 µM (CYP2C8): 103%
activity at 20 min, 5 µM (CYP2C9): 98%
activity at 20 min, 5 µM (CYP3A4 [6]): 100%
activity at 20 min, 5 µM (CYP3A4 [7]): 108%
fold induction at 48 h, 5 µM (CYP1A2 [8]): 16
SMILES: CCn1cc(NC(=O)c2coc(-c3ccnc(C)c3)n2)c(C(N)=O)n1

IC50 [3]: 0.067 µM
SMILES: NC(=O)c1nn(C2CCOCC2)cc1NC(=O)c1coc(-c2ccnc(C3CC3)c2)n1

IC50 [3]: 0.013 µM
SMILES: Cc1cc(-c2ccc(C(=O)Nc3cn(C4CCOCC4)nc3C(N)=O)o2)ccn1

IC50 [3]: 0.026 µM
SMILES: NC(=O)c1nn(C2CCOCC2)cc1NC(=O)c1coc(-c2ccc(F)cc2)n1

IC50 [3]: 0.018 µM
fold induction at 48 h, 10 µM (CYP1A2 [9]): 15
SMILES: COCCn1cc(NC(=O)c2coc(-c3ccnc(C)c3)n2)c(C(N)=O)n1

IC50 [3]: 0.02 µM
activity at 20 min, 5 µM (CYP1A2 [5]): 4%
activity at 20 min, 5 µM (CYP2C8): 70%
activity at 20 min, 5 µM (CYP2C9): 56%
activity at 20 min, 5 µM (CYP3A4 [6]): 74%
activity at 20 min, 5 µM (CYP3A4 [7]): 78%
SMILES: CCn1cc(NC(=O)c2csc(-c3ccncc3)n2)c(C(N)=O)n1

SMILES: Cc1cc(-c2nc(C(=O)Nc3cn(C4CCN(C)CC4)nc3C(N)=O)co2)ccn1
IC50 [3]: 0.018 µM
fold induction at 48 h, 15 µM (CYP1A2 [4]): 3.6
IC50 [2]: 0.45 µM

IC50 [3]: 0.025 µM
fold induction at 48 h, 5 µM (CYP1A2 [8]): 8.9
SMILES: CCCCn1cc(NC(=O)c2coc(-c3ccnc(C)c3)n2)c(C(N)=O)n1

IC50 [3]: 0.024 µM
SMILES: Cc1cc(-n2ccc(C(=O)Nc3cn(C4CCOCC4)nc3C(N)=O)n2)ccn1

SMILES: CC(=O)N1CCC(n2cc(NC(=O)c3coc(-c4ccnc(C)c4)n3)c(C(N)=O)n2)CC1
IC50 [3]: 0.017 µM
fold induction at 48 h, 15 µM (CYP1A2 [4]): 3.2
IC50 [2]: 0.46 µM

IC50 [3]: 0.016 µM
fold induction at 48 h, 7.5 µM (CYP1A2 [10]): 21
SMILES: Cc1cc(-c2nc(C(=O)Nc3cn(C)nc3C(N)=O)co2)ccn1

IC50 [3]: 0.03 µM
fold induction at 48 h, 30 µM (CYP1A2 [1]): 10
SMILES: Cc1cc(-c2nc(C(=O)Nc3cn(C4CCOC4)nc3C(N)=O)co2)ccn1 (centres undefined)

activity at 20 min, 5 µM (CYP1A2 [5]): 6%
activity at 20 min, 5 µM (CYP2C8): 103%
activity at 20 min, 5 µM (CYP2C9): 59%
activity at 20 min, 5 µM (CYP3A4 [6]): 70%
activity at 20 min, 5 µM (CYP3A4 [7]): 89%
SMILES: CCn1cc(NC(=O)c2coc(-c3ccncc3)n2)c(C(N)=O)n1

IC50 [3]: 0.15 µM
SMILES: Cc1cc(-c2nc(C(=O)Nc3cn(CC4(C)COC4)nc3C(N)=O)co2)ccn1

IC50 [3]: 0.032 µM
SMILES: Cn1cc(-c2nc(C(=O)Nc3cn(C4CCOCC4)nc3C(N)=O)co2)ccc1=O

IC50 [3]: 0.034 µM
fold induction at 48 h, 15 µM (CYP1A2 [4]): 4.5
SMILES: Cc1cc(-c2nc(C(=O)Nc3cn(CC4CCOC4)nc3C(N)=O)co2)ccn1 (centres undefined)

IC50 [3]: 0.08 µM
SMILES: Cc1cc(-c2ncc(C(=O)Nc3cn(C4CCOCC4)nc3C(N)=O)o2)ccn1

IC50 [3]: 0.052 µM
SMILES: NC(=O)c1nn(C2CCOCC2)cc1NC(=O)c1coc(-c2ccnc(CO)c2)n1
